Assay results from ChEMBL document CHEMBL1201862, “PubChem BioAssay data set” (2004).
Active and inactive are the calls of the source.

Assays:
NS3 = NS3 (Hepatitis C virus, UniProt A3EZJ3); assay: PubChem AID 2173; parameters: species or system Hepacivirus hominis
[1] = biological target: T1, Carboxy-terminal domain RNA polymerase II polypeptide A small phosphatase 1 (Homo sapiens, UniProt Q9GZU7); assay: CTDSP1 inhibitors, concentration-response, biochemical, absorbance readout, ultra-high-throughput screen actives (AID 540297); format: functional
T1 sequence (Q9GZU7 whole entry): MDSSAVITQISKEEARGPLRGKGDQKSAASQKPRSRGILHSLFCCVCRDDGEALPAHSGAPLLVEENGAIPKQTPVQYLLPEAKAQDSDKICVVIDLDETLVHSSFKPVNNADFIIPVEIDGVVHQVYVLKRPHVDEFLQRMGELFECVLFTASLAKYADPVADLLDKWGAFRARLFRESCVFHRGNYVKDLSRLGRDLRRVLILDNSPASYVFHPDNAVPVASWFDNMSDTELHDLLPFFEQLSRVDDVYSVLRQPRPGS

[2] = biological target: T2, Alkaline phosphatase, tissue-nonspecific isozyme (Homo sapiens, UniProt P05186)
T2 sequence (P05186 whole entry): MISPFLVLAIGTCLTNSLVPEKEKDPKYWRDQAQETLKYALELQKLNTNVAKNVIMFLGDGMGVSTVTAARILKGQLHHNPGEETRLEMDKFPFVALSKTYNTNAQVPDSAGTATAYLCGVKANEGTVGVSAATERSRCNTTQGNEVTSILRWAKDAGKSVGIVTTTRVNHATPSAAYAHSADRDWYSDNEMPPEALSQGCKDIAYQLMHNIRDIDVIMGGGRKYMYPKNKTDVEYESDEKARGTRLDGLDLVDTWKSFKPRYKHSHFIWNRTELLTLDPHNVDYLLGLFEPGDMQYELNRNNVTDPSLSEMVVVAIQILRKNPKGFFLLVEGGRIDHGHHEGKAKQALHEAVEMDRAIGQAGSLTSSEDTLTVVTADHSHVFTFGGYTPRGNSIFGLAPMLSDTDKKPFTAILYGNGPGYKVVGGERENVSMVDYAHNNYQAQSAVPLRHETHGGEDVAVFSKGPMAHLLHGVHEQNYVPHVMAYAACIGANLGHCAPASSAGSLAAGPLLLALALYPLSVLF

[3] = biological target: 1-acylglycerol-3-phosphate O-acyltransferase ABHD5/Perilipin-5 (Homo sapiens, UniProt Q00G26+Q8WTS1); assay: Luminescence-based biochemical high throughput dose response assay for inhibitors of the interaction of the lipase co-activator protein, abhydrolase domain containing 5 (ABHD5) with perilipin-5 (MLDP; PLIN5) (2K validation set). [Related pubchem assays (depositor defined):AID493035, AID493241]
Perilipin-1/ABHD5 = Perilipin-1/ABHD5 (Homo sapiens, UniProt O60240+Q8WTS1); assay: Luminescence-based biochemical high throughput dose response assay for inhibitors of the interaction of the lipase co-activator protein, abhydrolase domain containing 5 (ABHD5) with perilipin-1 (PLIN1) (2K validation set). [Related pubchem assays (depositor defined):AID493027, AID493057]
[4] = biological target: Neurotensin receptor type 1 (Homo sapiens, UniProt P30989); format: functional;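 also: Image-based confirmatory dose-response assay measuring agonist activity at NTR1; NTR1-expressing U2OS osteosarcoma cells imaged for beta-arrestin GFP spot formation; agonist potency where compounds increase beta-arrestin recruitment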
[5] = biological target: Eukaryotic translation initiation factor 4H (Homo sapiens, UniProt Q15056); assay: inhibitors of translation initiation factor eIF4H – SAR follow-up (AID 435011); format: functional
[6] = biological target: Polyadenylate-binding protein 1 (Homo sapiens, UniProt P11940); assay: PABP inhibition in translation initiation, SAR follow-up (AID 435018); format: functional
Aminopeptidase N = biological target: T3, Aminopeptidase N (Plasmodium falciparum FcB1/Columbia, UniProt O96935); assay: malaria alanyl aminopeptidase activity blockers – biochemical, fluorogenic H-Leu-NHMec substrate, 1536-well (AID 1445); parameters: species or system Plasmodium falciparum 3D7, 3D7
T3 sequence (O96935 whole entry): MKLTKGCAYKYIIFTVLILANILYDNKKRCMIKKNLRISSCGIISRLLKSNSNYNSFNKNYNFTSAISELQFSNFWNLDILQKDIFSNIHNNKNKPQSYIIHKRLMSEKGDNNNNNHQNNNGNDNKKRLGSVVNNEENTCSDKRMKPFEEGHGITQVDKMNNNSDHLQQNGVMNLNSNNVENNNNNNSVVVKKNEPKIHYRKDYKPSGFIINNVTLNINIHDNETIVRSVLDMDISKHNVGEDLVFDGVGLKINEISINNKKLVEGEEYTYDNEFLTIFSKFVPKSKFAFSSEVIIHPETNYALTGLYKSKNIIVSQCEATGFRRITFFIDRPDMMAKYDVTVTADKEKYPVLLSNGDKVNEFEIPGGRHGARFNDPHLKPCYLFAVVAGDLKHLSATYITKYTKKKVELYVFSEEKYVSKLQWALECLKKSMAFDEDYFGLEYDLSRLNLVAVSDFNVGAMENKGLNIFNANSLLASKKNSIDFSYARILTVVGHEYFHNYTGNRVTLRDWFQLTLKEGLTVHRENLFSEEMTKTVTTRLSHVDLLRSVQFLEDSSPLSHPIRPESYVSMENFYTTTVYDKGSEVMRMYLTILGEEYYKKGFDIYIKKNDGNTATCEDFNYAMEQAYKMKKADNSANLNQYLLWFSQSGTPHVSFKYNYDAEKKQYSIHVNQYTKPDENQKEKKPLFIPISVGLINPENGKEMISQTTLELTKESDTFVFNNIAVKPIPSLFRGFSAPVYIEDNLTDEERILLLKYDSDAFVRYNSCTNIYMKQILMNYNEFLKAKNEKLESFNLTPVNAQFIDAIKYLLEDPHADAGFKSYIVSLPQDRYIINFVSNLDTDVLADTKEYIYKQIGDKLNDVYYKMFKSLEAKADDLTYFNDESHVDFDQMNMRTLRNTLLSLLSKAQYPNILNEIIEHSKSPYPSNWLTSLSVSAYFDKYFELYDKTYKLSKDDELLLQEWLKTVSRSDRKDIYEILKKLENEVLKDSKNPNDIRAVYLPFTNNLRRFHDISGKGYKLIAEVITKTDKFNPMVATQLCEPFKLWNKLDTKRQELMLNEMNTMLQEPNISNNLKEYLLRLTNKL

[7] = biological target: T4, RNA-binding protein pos-1 (Caenorhabditis elegans, UniProt G5EF15); assay: disruptors of C. elegans POS-1 RNA interaction – biochemical, fluorescence polarization, dose response (AID 1964);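 also: purified POS-1 fused to maltose binding protein made in E. coli; potency of compounds blocking POS-1 binding to fluorescent RNA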
T4 sequence (G5EF15 whole entry): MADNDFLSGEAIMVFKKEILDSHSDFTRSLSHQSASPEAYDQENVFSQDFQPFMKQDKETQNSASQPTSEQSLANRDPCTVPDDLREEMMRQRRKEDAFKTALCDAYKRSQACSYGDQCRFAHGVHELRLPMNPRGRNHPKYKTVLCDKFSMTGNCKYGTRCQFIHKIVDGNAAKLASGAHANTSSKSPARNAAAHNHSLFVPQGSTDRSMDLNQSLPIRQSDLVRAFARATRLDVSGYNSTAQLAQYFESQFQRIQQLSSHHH

[8] = tested on: Streptococcus sp. 'group A'; assay: Streptococcus pyogenes SK(-)GAS viability under kanamycin – luminescence, BacTiterGlo, confirmation, counter-screen for streptokinase expression inhibitor project, dose response (AID 1900); format: functional, organism-based
[9] = biological target: T5, Zinc finger protein mex-5 (Caenorhabditis elegans, UniProt Q9XUB2); assay: potency of MEX-5 RNA-binding blockers – biochemical, C. elegans, fluorescence polarization, dose response (AID 1960)
T5 sequence (Q9XUB2 whole entry): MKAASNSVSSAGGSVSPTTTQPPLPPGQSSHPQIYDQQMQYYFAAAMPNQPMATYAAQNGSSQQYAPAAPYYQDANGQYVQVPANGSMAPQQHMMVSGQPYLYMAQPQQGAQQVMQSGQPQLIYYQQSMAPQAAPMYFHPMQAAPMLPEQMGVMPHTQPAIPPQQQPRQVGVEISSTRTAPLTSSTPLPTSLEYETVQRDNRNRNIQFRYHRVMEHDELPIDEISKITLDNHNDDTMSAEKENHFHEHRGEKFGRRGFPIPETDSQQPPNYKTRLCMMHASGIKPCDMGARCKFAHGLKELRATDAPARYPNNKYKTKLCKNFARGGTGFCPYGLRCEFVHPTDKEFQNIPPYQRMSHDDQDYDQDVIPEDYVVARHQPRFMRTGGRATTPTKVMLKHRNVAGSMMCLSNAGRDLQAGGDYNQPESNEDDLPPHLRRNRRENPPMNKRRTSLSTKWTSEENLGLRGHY

[10] = CCR5-tropic HIV-1 fusion blockers – cell-based, CCR5-tropic Env, dose response (AID 2279); format: functional
[11] = biological target: Induced myeloid leukemia cell differentiation protein Mcl-1 (Homo sapiens, UniProt Q07820); format: functional
Streptococcus = assay: GAS UMAA2166 growth inhibition – luminescence, BacTiterGlo, counter-screen for streptokinase expression inhibitor project, dose response (AID 1915); format: functional, organism-based;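 also: potency for reduction of bacterial viability or growth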

Perilipin-1/ABHD5, sequence (Q8WTS1 whole entry, the tested form may be a part): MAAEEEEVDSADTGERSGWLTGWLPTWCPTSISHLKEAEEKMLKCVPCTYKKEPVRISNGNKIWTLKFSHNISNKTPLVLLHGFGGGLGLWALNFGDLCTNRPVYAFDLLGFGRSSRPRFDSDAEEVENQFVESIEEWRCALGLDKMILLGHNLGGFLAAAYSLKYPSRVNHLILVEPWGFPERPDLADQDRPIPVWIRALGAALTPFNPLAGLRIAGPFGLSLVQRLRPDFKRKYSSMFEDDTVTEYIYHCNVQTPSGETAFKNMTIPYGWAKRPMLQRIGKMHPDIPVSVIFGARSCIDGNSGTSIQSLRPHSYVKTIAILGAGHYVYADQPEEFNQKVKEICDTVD
Perilipin-1/ABHD5, sequence (O60240 whole entry, the tested form may be a part): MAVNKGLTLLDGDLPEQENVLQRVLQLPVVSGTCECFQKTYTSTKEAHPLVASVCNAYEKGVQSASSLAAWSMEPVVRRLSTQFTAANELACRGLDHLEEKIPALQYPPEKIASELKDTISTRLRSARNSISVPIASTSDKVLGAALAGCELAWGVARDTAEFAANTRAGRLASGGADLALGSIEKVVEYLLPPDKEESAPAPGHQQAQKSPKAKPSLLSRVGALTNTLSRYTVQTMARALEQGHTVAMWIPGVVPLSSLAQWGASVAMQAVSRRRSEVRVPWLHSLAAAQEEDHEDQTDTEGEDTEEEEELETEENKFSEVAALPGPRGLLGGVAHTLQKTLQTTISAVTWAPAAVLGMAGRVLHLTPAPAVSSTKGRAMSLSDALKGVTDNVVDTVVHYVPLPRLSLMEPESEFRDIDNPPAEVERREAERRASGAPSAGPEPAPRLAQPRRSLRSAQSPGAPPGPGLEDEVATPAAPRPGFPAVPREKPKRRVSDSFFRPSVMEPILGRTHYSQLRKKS
1-acylglycerol-3-phosphate O-acyltransferase ABHD5/Perilipin-5, sequence (Q00G26 whole entry, the tested form may be a part): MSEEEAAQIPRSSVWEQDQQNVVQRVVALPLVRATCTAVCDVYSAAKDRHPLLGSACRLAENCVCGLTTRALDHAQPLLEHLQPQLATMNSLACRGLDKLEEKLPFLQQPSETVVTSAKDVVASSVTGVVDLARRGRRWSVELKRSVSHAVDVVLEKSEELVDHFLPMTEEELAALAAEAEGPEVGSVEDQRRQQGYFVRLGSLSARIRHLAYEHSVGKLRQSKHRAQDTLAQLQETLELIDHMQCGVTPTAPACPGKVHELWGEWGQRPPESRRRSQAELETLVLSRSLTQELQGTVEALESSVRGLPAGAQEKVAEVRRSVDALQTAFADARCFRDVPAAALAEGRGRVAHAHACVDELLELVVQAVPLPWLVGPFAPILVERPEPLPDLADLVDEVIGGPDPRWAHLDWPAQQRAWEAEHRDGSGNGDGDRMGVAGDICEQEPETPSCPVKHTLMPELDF
1-acylglycerol-3-phosphate O-acyltransferase ABHD5/Perilipin-5, sequence (Q8WTS1 whole entry, the tested form may be a part): as the sequence (Q8WTS1 whole entry, the tested form may be a part) above
NS3, sequence (A3EZJ3 whole entry, the tested form may be a part): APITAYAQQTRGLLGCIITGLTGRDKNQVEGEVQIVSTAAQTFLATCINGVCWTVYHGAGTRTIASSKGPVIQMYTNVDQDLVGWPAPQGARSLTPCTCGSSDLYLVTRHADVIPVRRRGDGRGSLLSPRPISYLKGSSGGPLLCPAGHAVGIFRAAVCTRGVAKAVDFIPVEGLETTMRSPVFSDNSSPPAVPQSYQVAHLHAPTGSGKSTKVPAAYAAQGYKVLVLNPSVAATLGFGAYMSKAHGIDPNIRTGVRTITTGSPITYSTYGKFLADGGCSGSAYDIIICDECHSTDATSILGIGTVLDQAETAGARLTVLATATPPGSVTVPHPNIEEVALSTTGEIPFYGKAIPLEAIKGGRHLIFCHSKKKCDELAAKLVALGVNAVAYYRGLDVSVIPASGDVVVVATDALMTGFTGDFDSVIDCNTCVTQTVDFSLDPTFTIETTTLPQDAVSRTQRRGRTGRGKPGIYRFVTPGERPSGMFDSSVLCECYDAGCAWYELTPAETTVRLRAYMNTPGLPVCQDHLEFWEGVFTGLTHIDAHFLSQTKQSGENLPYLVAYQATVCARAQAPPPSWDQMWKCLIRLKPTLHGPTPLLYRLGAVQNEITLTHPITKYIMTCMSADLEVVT
Induced myeloid leukemia cell differentiation protein Mcl-1, sequence (Q07820 whole entry): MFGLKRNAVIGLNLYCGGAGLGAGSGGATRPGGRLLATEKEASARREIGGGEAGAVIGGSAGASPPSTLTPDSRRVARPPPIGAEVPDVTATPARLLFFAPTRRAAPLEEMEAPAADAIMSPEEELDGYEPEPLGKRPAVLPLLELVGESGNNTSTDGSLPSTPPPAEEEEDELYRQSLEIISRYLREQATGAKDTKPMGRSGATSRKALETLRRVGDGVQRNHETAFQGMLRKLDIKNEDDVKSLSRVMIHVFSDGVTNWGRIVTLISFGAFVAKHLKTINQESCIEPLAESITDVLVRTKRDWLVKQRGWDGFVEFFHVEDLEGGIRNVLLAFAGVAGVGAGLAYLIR
Neurotensin receptor type 1, sequence (P30989 whole entry): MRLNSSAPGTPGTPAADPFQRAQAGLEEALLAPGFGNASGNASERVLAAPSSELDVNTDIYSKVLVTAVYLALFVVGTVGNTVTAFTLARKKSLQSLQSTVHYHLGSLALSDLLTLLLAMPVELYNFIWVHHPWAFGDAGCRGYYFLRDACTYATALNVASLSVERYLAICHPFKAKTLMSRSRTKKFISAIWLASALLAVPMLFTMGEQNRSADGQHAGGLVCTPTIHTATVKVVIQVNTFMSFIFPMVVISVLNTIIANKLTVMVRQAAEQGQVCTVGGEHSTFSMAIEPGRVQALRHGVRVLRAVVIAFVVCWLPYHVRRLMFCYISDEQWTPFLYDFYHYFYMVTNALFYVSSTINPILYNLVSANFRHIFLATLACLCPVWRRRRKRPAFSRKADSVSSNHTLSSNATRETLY
Polyadenylate-binding protein 1, sequence (P11940 whole entry): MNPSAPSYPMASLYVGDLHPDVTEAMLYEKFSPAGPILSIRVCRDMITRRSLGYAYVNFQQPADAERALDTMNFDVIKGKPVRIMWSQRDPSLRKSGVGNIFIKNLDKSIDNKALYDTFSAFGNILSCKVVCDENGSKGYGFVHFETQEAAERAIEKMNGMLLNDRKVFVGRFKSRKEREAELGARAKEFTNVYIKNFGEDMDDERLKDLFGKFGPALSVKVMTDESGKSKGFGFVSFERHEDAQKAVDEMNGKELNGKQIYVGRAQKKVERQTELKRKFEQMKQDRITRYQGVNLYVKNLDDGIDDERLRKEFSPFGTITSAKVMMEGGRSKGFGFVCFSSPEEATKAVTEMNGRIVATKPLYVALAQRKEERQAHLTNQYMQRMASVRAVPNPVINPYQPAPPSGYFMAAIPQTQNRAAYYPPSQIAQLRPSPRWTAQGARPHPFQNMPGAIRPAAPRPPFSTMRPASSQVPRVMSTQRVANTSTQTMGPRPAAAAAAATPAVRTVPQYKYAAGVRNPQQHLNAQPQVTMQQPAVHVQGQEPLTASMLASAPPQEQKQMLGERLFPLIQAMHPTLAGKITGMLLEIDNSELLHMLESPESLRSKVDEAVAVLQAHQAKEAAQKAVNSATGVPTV

N#C/C(=C\c1ccc(OCc2ccc(C(=O)O)cc2)cc1)C(=O)NCc1ccccc1
IC50 (NS3): 7.07 µM (active)
IC50 [1]: 7.1 µM (active)

Cc1cccc(-n2c(CNC(=O)c3cccc([N+](=O)[O-])c3C)n[nH]c2=S)c1
EC50 [2]: > 100 µM (not active)

COc1ccc2c(c1)C=CC1(O2)N(CCO)c2ccccc2C1(C)C (stereo not drawn)
IC50 [3]: 6.97 µM (active)
IC50 (Perilipin-1/ABHD5): 7.1 µM (active)

COC(=O)c1sc(N2C(=O)C(O)=C(C(=O)c3ccc(C)o3)C2c2cc(OC)ccc2OC)nc1C (stereo not drawn)
IC50 (NS3): 5.66 µM (active)

COc1ccc(/C=C\C(=O)c2c(O)ccc3c(C)cc(=O)oc23)cc1OC
IC50 [3]: 8.91 µM (active)
IC50 (Perilipin-1/ABHD5): 4.46 µM (active)

O=C1c2ccc(Cl)cc2S(=O)(=O)c2cccc(C(=O)N3CCC(Cc4ccccc4)CC3)c21
EC50 [4]: 16.6 µM (active)

Cc1ccccc1NC(=O)C1CCN(C(=O)c2cccs2)CC1
IC50 [5]: > 100 µM (inactive)
IC50 [6]: > 100 µM (inactive)

O=c1cc(-c2ccccc2Cl)oc2c(NS(=O)(=O)c3cc(Cl)cc(Cl)c3O)ccc(O)c12
IC50 (Aminopeptidase N): 51.6 µM (active)
EC50 [7]: > 300 µM (not active)
EC50 [8]: 1 µM (active)
EC50 [9]: 4.54 µM (inconclusive)
IC50 [10]: 4.77 µM (active)
IC50 [11]: 3.4 µM (active)
EC50 (Streptococcus): 2.26 µM (active)
